{"source": "patent US9834525B2", "about": "“Inhibitors of paxillin function and related compositions and methods” (UNIVERSITY OF TENNESSEE RESEARCH FOUNDATION, priority 2015, dated 2017)", "key": {"[1]": {"test_system": "retinal endothelial cells (REC)", "experiment": "transwell (Boyden chamber) cell migration assay, VEGF-stimulated RECs", "type": "cell-based, human", "conditions": "24 hours of VEGF stimulation; +100, +500 nM", "method": "Two methods of evaluating VEGF-induced REC migration were used to assess the impact of compound (II-4) on paxillin-mediated migration: the scratch assay and the transwell (Boyden chamber) cell migration assay. To test if paxillin inhibition would reduce VEGF-induced REC migration, RECs were wounded and treated with VEGF ([…]) +/− compound (II-4) ([…]). Wound closure was monitored by phase microscopy over 24 hours and area of wound closure was calculated using the sophisticated image analysis tools in Adobe Photoshop. Cells were then fixed and nuclei were stained using DAPI to show extent of cell migration.\nCompound (II-4) was further investigated around these concentrations using the transwell migration assay (FIG. 17B).\nFIG. 17: REC migration. A) Increasing concentrations of compound (II-4) inhibit VEGF-induced migration in a scratch wound assay; [Serum Free-control, VEGF (100 ng/mL), VEGF+100 nM, 500 nM, 10 μM, 100 μM] (IC50≈180 ηM; n=6/group). Cells were stained with DAPI for representative images. B) RECs seeded onto transwell membranes were stimulated with VEGF+ vehicle or compound (II-4) for 24 hrs. Cells were removed from the topside of membrane and migrated cells were stained with DAPI [Serum-Free (SF), VEGF, +100, +500 nM, respectively]. Cell number was measured using fluorescence microscopy. All data are mean±SD (*, # P<0.001)"}, "[2]": {"test_system": "FAK (Y397, Y576/577, Y925)", "experiment": "Western blot of VEGF-induced FAK phosphorylation in REC", "type": "cell-based, human", "conditions": "REC under VEGF; compound (II-4) 500 nM, SU6656 1 μM", "method": "REC, Mel 270, OMM 2.5 under Hepatocyte Growth Factor (HGF) or Vascular Endothelial Growth Factor (VEGF) stimulation conditions: Cell lysates were collected in RIPA lysis buffer (50 mM Tris-HCl, pH 7.4, 150 mM NaCl, 2 mM EDTA, 1% Nonidet P-40, 0.1% SDS) with protease 1× inhibitor cocktail (Roche; Indianapolis, Ind.). Lysates were kept on ice and centrifuged at 10,000×g×10 minutes and total protein was measured using the BCA assay (Pierce, Rockford, Ill.). Protein samples were mixed with 4×LDS loading buffer with 2.5% 2-mercaptoethanol (Sigma-Aldrich), heated to 70° C. for 10 minutes, and loaded on NuPAGE 4-12% Bis-Tris gel (Invitrogen, Carlsbad, Calif.). Immunoblotting was performed with nitrocellulose membranes (Bio-Rad, Hercules, Calif.) at 170-mA start and 110-mA end at 25 V for two hours in NuPAGE transfer buffer (Invitrogen) containing 20% methanol. Membranes were blocked using Odyssey blocking buffer (LI-COR; Lincoln, Nebr.) for one hour at room temperature with gentle shaking Membranes were then incubated at 4° C. with specific primary antibodies (1:1000) overnight. Cellular protein was normalized using rabbit-GAPDH or mouse-α-Tubulin [1:20,000] (Cell Signaling, Danvers, Mass.; LI-COR, respectively). […] Dual-channel infrared scan and quantitation of immunoblots were conducted using the ODYSSEY Sa infrared imaging system with Image Studio (Ver. 3.1.4) (LI-COR). […]"}}, "note": "Entries after “also recorded” stand apart in the source; their conditions may differ."}
{"smiles": "COc1cc(C2OC(=O)Nc3c2ccc2ccccc32)cc(OC)c1OC", "note": "(centres unmarked) [compound II-4]", "values": [{"measurement": "migration of RECs in transwell migration assay", "setting": "[1]", "value": "significant decrease"}, {"measurement": "VEGF-induced FAK activation (Y397, Y925)", "setting": "[2]", "value": "independent of both FAK Y397 autophosphorylation and Src-driven FAK Y925; also recorded: not FAK Y925 activation"}]}
